For 2 molecules, IC50 results are on record in ChEMBL document CHEMBL3352521, “Two Potent OXE-R Antagonists: Assignment of Stereochemistry” (ACS Med Chem Lett, 2014).

A word on the IC50: it is the midpoint of a concentration-inhibition curve.

The target in the test is Oxoeicosanoid receptor 1 (Homo sapiens, UniProt Q8TDS5). In words: Antagonist activity at OXE receptor in human neutrophils assessed as inhibition of calcium mobilization by fluorescence assay. Type of test: functional. (In general: Calcium assays in cells follow changes in intracellular calcium, usually with a dye or a luminescent sensor.)
Chain of Oxoeicosanoid receptor 1 (Q8TDS5 whole entry): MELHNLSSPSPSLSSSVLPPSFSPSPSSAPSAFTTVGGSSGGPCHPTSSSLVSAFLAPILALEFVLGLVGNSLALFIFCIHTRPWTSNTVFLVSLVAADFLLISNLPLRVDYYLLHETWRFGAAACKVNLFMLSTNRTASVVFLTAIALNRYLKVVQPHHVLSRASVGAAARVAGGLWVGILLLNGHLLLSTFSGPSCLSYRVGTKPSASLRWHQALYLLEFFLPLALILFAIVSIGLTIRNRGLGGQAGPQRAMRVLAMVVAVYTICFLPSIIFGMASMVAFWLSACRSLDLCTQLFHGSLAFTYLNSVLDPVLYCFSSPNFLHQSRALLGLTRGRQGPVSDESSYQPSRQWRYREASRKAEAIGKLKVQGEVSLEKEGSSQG

SMILES strings stand for the structures.

Regarding `CCCCCCc1c(C(=O)C[C@H](C)CC(=O)O)c2cc(Cl)ccc2n1C`, the IC50 stood at 6 nM.

In the case of `CCCCCCc1c(C(=O)C[C@@H](C)CC(=O)O)c2cc(Cl)ccc2n1C`, the IC50 was 2.7 nM.
